“And” between values parts separate entries of the source, which are not always exact repeats. Identical values can stand only once.
Tested on: Schweißsekretion
Assay: Imprint method: sweat reduction on the inner forearm after topical application for several days, sauna sweating, silicone imprint with image analysis
Format: in vivo, menschlichen Probanden
Excerpt: Der Nachweis der Wirksamkeit wurde an menschlichen Probanden mit Hilfe der sogenannten "Imprintmethode" geführt. Bei dieser Methode wird das zu untersuchende Material am Unterarm innen mehrere Tage hintereinander (topisch) angewendet, sodann begeben sich die Probanden in die Sauna zum Schwitzen. An der Untersuchungsstelle wird eine Silikonmasse aufgetragen, die während der Schwitzphase aushärtet. An den Stellen, an denen Schweisströpfchen austreten, bilden sich Abdrücke in der Silikonmasse, welche bildanalytisch ausgewertet werden können. Nach diesem Verfahren wurden zunächst die Wirkstoffe in wäßriger Lösung untersucht und sodann entsprechende kosmetische Zubereitungen.
Es wurden wässrige Lösungen aus Mecetroniumethylsulfat (MES) hergestellt und an 15 Probanden die Schweissreduktion mit Hilfe der Imprint-Methode am inneren Unterarm geprüft. Zum Vergleich wurde eine 10 %ige Aluminiumchlorhydrat-Lösung verwendet

Compound | Reduktion der Schweißsekretion (in vivo) | Reduktion der Schweißsekretion (10 %ige comparison solution, 15 Probanden, inner forearm)
CCCCCCCCCCCCCCCC[N+](C)(C)CC [MES, N-Hexadecyl-N-ethyl-N,N-dimethylammoniumethylsulfat] | 93% and 95% | 
Aluminiumchlorhydrat |  | 93%
